Results: PMC4212247 (Neoplasia (New York, N.Y.), 2014)

Molecular target: p70 S6 kinase (S6K1) (Homo sapiens, UniProt P23443)
Assay: in vitro kinase assay with recombinant S6K1, peptide substrate and […] ATP
Format: biochemical

Chain of p70 S6 kinase (S6K1) (P23443 24-525): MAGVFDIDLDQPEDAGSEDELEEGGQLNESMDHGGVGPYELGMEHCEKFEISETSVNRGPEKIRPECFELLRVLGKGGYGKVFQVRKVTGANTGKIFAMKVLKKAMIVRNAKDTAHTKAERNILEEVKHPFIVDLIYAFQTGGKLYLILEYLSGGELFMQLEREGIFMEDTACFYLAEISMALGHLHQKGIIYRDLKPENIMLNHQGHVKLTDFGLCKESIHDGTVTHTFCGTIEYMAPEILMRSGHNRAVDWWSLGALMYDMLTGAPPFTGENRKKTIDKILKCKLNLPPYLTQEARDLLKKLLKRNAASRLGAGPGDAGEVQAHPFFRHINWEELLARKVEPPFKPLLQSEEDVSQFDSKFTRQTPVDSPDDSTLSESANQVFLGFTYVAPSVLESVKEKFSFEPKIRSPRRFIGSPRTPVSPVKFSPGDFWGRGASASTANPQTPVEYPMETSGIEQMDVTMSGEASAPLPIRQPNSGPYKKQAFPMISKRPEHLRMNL

IC50 [µM] | Compound
~55 | Cc1oncc1C(=O)Nc1ccc(C(F)(F)F)cc1 [leflunomide]
~80 | C/C(O)=C(\C#N)C(=O)Nc1ccc(C(F)(F)F)cc1 [A77 1726]
